5 compounds from US20100076059A1, “METHOD OF EVALUATING COMPOUND EFFICACIOUS IN TREATING OBESITY BY USING Slc25a10” (priority 2003, published 2010) can be followed below.

In one series the test system is HEK293 cells. Kind of series: DiOC6 staining of mitochondrial proton gradient in HEK293 cells. It is filed as cell-based. To be noted: DiOC6-stained HEK293 cells. On the procedure: First, HEK293 cells were seeded in a 6-well plate at a density of 2×10^6 cells/well. After 24 hours, S1c25a10 gene cloned in pcDNA 3.1 vector was transfected into the cells using Lipofectamine 2000. As a negative control there were used cells having only the vector transfected, and as positive controls there were used cells having mouse UCP1 transfected and cells having human UCP3 transfected.
After 48 hours from transfection of the gene, the mitochondrial gradient sensitivity-indicating agent DiOC6 (3-3′-dihexyloxacarbocyanine iodide) was used for staining. The staining was performed by treating the cells with 0.3 μM DiOC6 for 20 minutes followed by rinsing twice with PBS. DiOC6 binds to mitochondria in greater amount as the proton gradient increases, emitting strong fluorescence. On the other hand, it binds to mitochondria in lower amount as the proton gradient decreases, resulting in weaker fluorescent intensity.
FIG. 1(a) is a confocal micrograph showing DiOC6-stained HEK293 cells treated with CCCP (carbonyl cyanide m-chlorophenylhydrazone) which uncouples the intracellular mitochondrial proton gradient, and FIG. 1(b) is a photograph of HEK293 cells without CCCP treatment. With the untreated HEK293 cells, the intracellular mitochondria are clearly stained by outlining dots. […] It was thus confirmed that the mitochondria had been stained in a proton gradient-specific manner. […]

In the next series the test system is S1c25a10 gene. The experiment in a line: S1c25a10 expression in white adipocytes (WAT) of mouse models, U74A / 25K1.8 chip. Type of series: in vivo. The conditions noted are these: non-treated C57BL/6N mice defined as 1. On the procedure: A mouse model of obesity induced by administration of an NPY Y5 agonist was prepared in the following manner. Nine- to twelve-week-old male mice (C57BL/6J: Clea Japan) were raised under conditions with a room temperature of 23±2° C. and a humidity of 55±15%, with one mouse in each plastic cage. The mice were raised under a 12 hour lightness/darkness cycle, with lights on at 7:00 am and lights off at 7:00 pm. The mice were also given free access to feed (CE-2 (25.4 wt % protein, 50.3 wt % carbohydrate, 4.4 wt % lipid), Clea Japan) and water.
The mice were anesthetized with 80 mg/kg sodium pentobarbital (Dynabot) and a 28-gauge sterilized brain infusion cannula (Alzet Co.) was stereotactically implanted in the right cerebral ventricle. The cannula was positioned 0.4 mm behind and 0.8 mm to the side of the bregma, and to a depth of 2 mm, and was anchored vertically with respect to the cranial bone using dental cement. A polyvinyl chloride tube was used to connect the cannula to an osmotic pump (Model #2002: Alzet Co.) filled with 10 mM phosphate buffer containing 0.05% bovine serum albumin (BSA). A solution of D-Try^34 NPY in 10 mM PBS (containing 0.05% BSA) (prepared for 5 μg/day) was filled into the pump, and the pump was implanted subcutaneously at the back of the mouse for continuous infusion. An antibiotic (50 mg/kg cefamedine, product of Fujisawa Pharmaceutical Co., Ltd.) was also subcutaneously injected.
The mice were divided into three groups: a normally-fed group given infusion of the solvent alone (vehicle group); an obesity-induced group given infusion of D-Try^34 NPY (NYP Y5 agonist) with an increased food amount (ad lib fed group); and a group given infusion of D-Try^34 NPY but with food restricted to the same amount as the vehicle group (pair-fed group).
A mouse model of obesity induced by administration of MCH (melanin-concentrating hormone) was prepared in the following manner. Thirteen-week-old male mice (C57BL/6J: Clea Japan) were raised under conditions with a room temperature of 23±2° C. and a humidity of 55±15%, with one mouse in each plastic cage. The mice were raised under a 12 hour lightness/darkness cycle, with lights on at 7:00 am and lights off at 7:00 pm. The mice were also given free access to food (CE-2 (25.4 wt % protein, 50.3 wt % carbohydrate, 4.4 wt % lipid), Clea Japan) and water. […]
The mouse models prepared in Preparation Examples 1-4 were used for measurement of S1c25a10 expression in white adipocytes (WAT). The expression levels were measured by treating RNA extracted from white adipocytes from each mouse model using a mouse U74A chip (Affymetrix) and a mouse 25K1.8 chip (Rossetta).

In a further series the test system is human S1c25a10 gene. Kind of series: Suppression of human S1c25a10 expression by siRNA transfection (RNAi). It is filed as cell-based. The conditions noted are these: siRNA to human S1c25a10 gene. The text has this: (§1) First, a silencer siRNA construction kit (Ambion Inc.) was used to synthesize siRNA. Next, in order to determine the optimum sequences for human or mouse S1c25a10, twelve different sequences were examined based on suppression of S1c25a10 expression. FIG. 6(a) and (b) show the relative expression levels of S1c25a10 gene in each of the siRNA-transfected cells.
The sequence of each siRNA is shown below. The “Position” indicates the corresponding nucleic acid position of the human S1c25a10 gene (NM_012140) for each siRNA.
Next, siRNA-transfected cells were prepared. For siRNA transfection, the cells were seeded on a 6-well plate at a density of 2×10^4 cells/well. After 24 hours, the siRNA (H4 or H10) was transfected into the cells using Oligofectamine (Invitrogen). On the 2nd day after transfection, the cells were harvested and RNA was prepared using RNeasy (Qiagen). cDNA was prepared from the RNA by quantitative RT-PCR (Applied Biosystems), for quantitation of the S1c25a10 and ACC1 expression levels.

For the next series, the system named is mouse S1c25a10 gene. Kind of series: Suppression of mouse S1c25a10 expression by siRNA transfection (RNAi). It is filed as cell-based. To be noted: siRNA to mouse S1c25a10 gene.
From the text: as §1
The nucleotide sequences of siRNA corresponding to the mouse S1c25a10 gene (NM_013770) are also shown below.

Setting [1] is: administered mice, ad lib fed (FF).

Where no end group is shown, it is not given here.

`N#CC(C#N)=NNc1cccc(Cl)c1` [CCCP, carbonyl cyanide m-chlorophenylhydrazone]: the fluorescent intensity result in the series with HEK293 cells (confocal micrograph, versus untreated cells) is “significantly reduced”. This compound displayed a Mean fluorescent intensity in the series on HEK293 cells (flow cytometer) of 5.4.
On to D-Try^34 NPY, for which the Slc25a10 expression came to 3.0 in the series with S1c25a10 gene (setting [1]) and 1.9 with S1c25a10 gene (pair feeding (PF) mice).
For the compound “H4: siRNA to human S1c25a10 gene, Position 556, SEQ ID NOs: 9 and 10 (chain 1 AAACAGTCTCCTGAGACCCTCCCTGTCTC; chain 2 AAGAGGGTCTCAGGAGACTGTCCTGTCTC; listed as DNA, chemistry not given here)”, the “S1c25a10 gene expression (inhibiting effect)” value in the series on human S1c25a10 gene was “particularly powerful inhibiting effects”; in the series with human S1c25a10 gene (listed as siRNA consisting of nucleic acids of SEQ ID NOs: 9 and 10) it was “powerfully inhibit S1c25a10 expression”; in the series on human S1c25a10 gene (listed as siRNA consisting of the nucleic acids of SEQ ID NOs: 9 and 10), “significantly reduce expression”.
Take “M8: siRNA to mouse S1c25a10 gene, Position 1159, SEQ ID NOs: 41 and 42 (chain 1 AAGTGGCACCTCTGCCCTACTCCTGTCTC; chain 2 AAAGTAGGGCAGAGGTGCCACCCTGTCTC; listed as DNA, chemistry not given here)”: the “S1c25a10 gene expression (inhibiting effect)” value in the series on mouse S1c25a10 gene was “particularly powerful inhibiting effects”; with mouse S1c25a10 gene (listed as siRNA consisting of nucleic acids of SEQ ID NOs: 41 and 42) it was “powerfully inhibit S1c25a10 expression”; in the series with mouse S1c25a10 gene (listed as siRNA consisting of the nucleic acids of SEQ ID NOs: 41 and 42), “significantly reduce expression”.
For “melanin-concentrating hormone (DFDMLRCMLGRVYRPCWQV; ends and bridges not checked; cysteine pairing not given here; UniProt P56942 147-165, looked up) [MCH, MCH infused i.c.v. to induce obesity in mice]”, the results for the Slc25a10 expression in the series with S1c25a10 gene (setting [1]) and in the series with S1c25a10 gene (pair feeding (PF) mice) were 1.7 and 2.4, respectively.
